From PMC10409515, “Enzymatic properties of alcohol dehydrogenase PedE_M.s. derived from Methylopila sp. M107 and its broad metal selectivity” (Frontiers in Microbiology, 2023)

system: T1, PedE_M.s.; assay: PMS-mediated DCPIP reduction at […] nm; Michaelis-Menten fit; type: biochemical; conditions: PMS 1 mM, DCPIP 150 uM, 45 mM NH4Cl, 100 mM Tris-HCl pH 9.0; optimal conditions (30 °C optimum; general assay text says about 26 °C); Ca2+-PQQ enzyme; read-out: Methylopila sp. M107 / Km
T1 construct: gene pedE; C-terminal 8xHis tag; codon-optimised gene expressed in Methylorubrum extorquens AM1 (quadruple mutant) with Ca2+; Ni-NTA purified; signal peptide not discussed

`CCCCO` [Butanol] and `CCCCCO` [Pentanol] are within error of each other in Km: 39 ± 15 µM for the first, 49 ± 14 µM for the second.

`CCO` [Ethanol] and `CCCO` [Propanol] are within error of each other in Km: 28 ± 6 µM for the first, 25 ± 6 µM for the second.

Compared with `C=O` [Formaldehyde], `CCCCCCO` [Hexanol] is 2-fold higher in Km: 39 ± 21 µM for the first, 79 ± 14 µM for the second.

`CC(C)O` [Isopropanol] and `CO` [Methanol] are within error of each other in Km: 35 ± 12 µM for the first, 25 ± 6 µM for the second.
